Data on 11 compounds can be found in patent US20070254881A1, “Pyrazole Derivative” (DAIICHI PHARMACEUTICAL CO., LTD., priority 2004, published 2007).

Assay [1] relates to collagen-induced platelet aggregation. The assay can be described thus: Platelet aggregation suppressing effect (collagen-induced aggregation in platelet rich plasma). Type of assay: cell-based. Conditions: human PRP, 37° C., collagen as inducer, read-out: Inhibitory effect of collagen-induced platelet aggregation IC50. As for the experimental part:
Human blood was collected using 3.13% sodium citrate in a volume 1/10 of the blood volume, as an anticoagulant. The collected blood was centrifuged at 180 g for 10 minutes to separate platelet rich plasma (PRP) from the blood. After collecting the PRP fraction in the upper layer, the lower layer was further centrifuged at 1600 g for 10 minutes to fractionate platelet poor plasma (PPP) in the upper layer. One μl of a solution of a compound obtained in the Examples was added to 200 μl of PRP, and the mixture was allowed to stand at 37° C. for 2 minutes. Subsequently, 2 μl of collagen was added thereto, so as to induce platelet aggregation. The platelet aggregation rate was measured using PAM-12C(SSR Engineering, Inc.).

The target of a further assay is T1, Cyclooxygenase-1 (COX-1) (Ovis aries, UniProt P05979).
T1 construct: purchased Cayman Chemical Company 560101
T1 sequence (P05979 25-600): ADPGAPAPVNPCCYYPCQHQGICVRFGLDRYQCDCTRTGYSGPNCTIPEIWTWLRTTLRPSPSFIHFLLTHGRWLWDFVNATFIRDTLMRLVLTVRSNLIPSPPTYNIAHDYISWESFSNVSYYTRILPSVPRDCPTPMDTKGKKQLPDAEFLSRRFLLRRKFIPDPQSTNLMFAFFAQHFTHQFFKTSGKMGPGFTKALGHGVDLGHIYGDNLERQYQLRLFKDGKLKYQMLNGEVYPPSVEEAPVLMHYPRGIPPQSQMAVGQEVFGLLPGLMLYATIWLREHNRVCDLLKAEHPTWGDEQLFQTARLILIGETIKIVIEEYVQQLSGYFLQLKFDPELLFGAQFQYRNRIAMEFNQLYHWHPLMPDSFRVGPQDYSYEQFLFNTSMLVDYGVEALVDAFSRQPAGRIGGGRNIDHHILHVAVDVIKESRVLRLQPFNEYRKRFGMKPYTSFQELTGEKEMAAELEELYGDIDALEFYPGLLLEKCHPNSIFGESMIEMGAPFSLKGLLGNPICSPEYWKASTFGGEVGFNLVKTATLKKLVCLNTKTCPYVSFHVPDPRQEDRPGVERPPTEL
The assay can be described thus: COX-1 inhibition, COX Inhibitor Screening Assay Kit (PGF2α production, ELISA). The format is biochemical. Conditions: compound 50 μM. An excerpt:
For the measurement of the inhibitory activity of the compounds obtained in the Examples against COX-1 and COX-2, a COX Inhibitor Screening Assay Kit manufactured by Cayman Chemical Company (Catalog Nos. 560101 and 560121) was used.
Before starting the measurement, a reaction buffer, heme, arachidonic acid, SnCl2, EIA buffer, a washing buffer, prostaglandin (PG)-screening EIA standard solution, PG-screening acetylcholinesterase (AchE), a tracer […], and PG-screening EIA antiserum were provided.
A reaction solution containing a compound of the Examples (50 μM) and COX-1, or a reaction solution containing a compound of the Examples (300 μM) and COX-2 was allowed to stand at 37° C. for 10 minutes, then 10 μl of arachidonic acid was added thereto, and the resultant mixture was allowed to stand at 37° C. for 2 minutes. After the reaction, 50 μl of 1 N hydrochloric acid was added to the reaction mixture to stop the reaction, and 100 μl of a SnCl2 solution was added thereto. The resultant mixture was allowed to stand at room temperature for 5 minutes.
50 μl of antiserum (rabbit anti-PGF2α antibody) was added to each well of a 96-well plate coated with mouse anti-rabbit IgG. Then, 50 μl of a solution prepared by diluting the reaction solution for PGF2α production to 2000-folds, and 50 μl of an AchE tracer were added sequentially to the wells, and the plate was kept at room temperature for 18 hours. Each well washed 5 times with the washing buffer to remove excessive AchE tracer, and then 200 μl of Ellman reagent was added to each well. The plate was kept in the dark room for 60 minutes, and then, absorbance at 405 nm was measured.
A standard curve was produced using a PG-screening EIA standard solution, and the amount of PGF2α production was determined from the absorbance obtained as described above. The COX-1 inhibition rate at 50 μM of the compound of the Examples, and the COX-2 inhibition rate at 300 μM of the compound of the Examples were calculated.

Molecules are shown by their SMILES. pIC50: −log10 of the molar value.

For orientation: pIC50 means −log10 of the IC50, conventionally taken in molar units. On to `COc1ccc(-n2nc(C(=O)N3CCCC3C)cc2-c2ccccn2)nn1` (stereo not shown) [Example 27, 1-[1-(6-Methoxy-3-pyridazinyl)-5-(2-pyridyl)-1H-pyrazole-3-carbonyl]-2-methylpyrrolidine], for which the pIC50 in assay [1] was 7.04. Moreover, the “COX-1 inhibitory action at 50 μM (% inhibition)” value on Cyclooxygenase-1 (COX-1) is reported as −10.2 % inhibition.

On to `COc1ccc(-n2nc(C(=O)N3CCOC[C@@H]3C)cc2-c2ccccn2)nn1` [Example 105, (+)(3S)-4-[1-(6-Methoxypyridazin-3-yl)-5-(2-pyridyl)-1H-pyrazole-3-carbonyl]-3-methylmorpholine], for which, in assay [1], the pIC50 is 6.36. Moreover, the “COX-1 inhibitory action at 50 μM (% inhibition)” value on Cyclooxygenase-1 (COX-1) is −9.6 % inhibition.

In the case of `COc1ccc(-n2nc(C(=O)N3CCC(OC)CC3)cc2-c2ccc[nH]2)nn1` [Example 14, 1-[1-(6-Methoxy-3-pyridazinyl)-5-(1H-pyrrol-2-yl)-1H-pyrazole-3-carbonyl]-4-methoxypiperidine], in assay [1], the negative-log IC50 (pIC50) is 6.92. Besides, at Cyclooxygenase-1 (COX-1), the “COX-1 inhibitory action at 50 μM (% inhibition)” value came to 39.3 % inhibition.

Turning to `COc1ccc(-c2cc(C(=O)N3CCOCC3)nn2-c2ccc(C)nc2)nc1` [Example 1, 4-[5-(5-Methoxy-2-pyridyl)-1-(6-methyl-3-pyridyl)-1H-pyrazole-3-carbonyl]morpholine], the negative-log IC50 (pIC50) in assay [1] was 6.68. The “COX-1 inhibitory action at 50 μM (% inhibition)” value on Cyclooxygenase-1 (COX-1) is recorded as −13.3 % inhibition.

For the compound `COc1ccc(-n2nc(C(=O)N3CCN(C)C(=O)C3)cc2-n2cccc2)cn1` [Example 10, 1-[1-(6-Methoxy-3-pyridyl)-5-(1H-pyrrol-1-yl)-1H-pyrazole-3-carbonyl]-4-methyl-3-oxopiperazine], in assay [1], the pIC50 is 6.72. Further, the “COX-1 inhibitory action at 50 μM (% inhibition)” value at Cyclooxygenase-1 (COX-1) was found to be 54.1 % inhibition.

Take `COc1ccc(-n2nc(C(=O)N3CCC(OC)CC3)cc2-c2cnn(C)c2)cn1` [Example 119, 1-[1-(6-Methoxy-3-pyridyl)-5-(1-methyl-1H-pyrazol-4-yl)-1H-pyrazole-3-carbonyl]-4-methoxypiperidine]: the negative-log IC50 (pIC50) in assay [1] was 6.80. Besides, on Cyclooxygenase-1 (COX-1), the “COX-1 inhibitory action at 50 μM (% inhibition)” value came out at 13.0 % inhibition.

Consider `Cc1ccc(-n2nc(C(=O)N3CCC(F)CC3)cc2-c2cnc(C)cn2)cn1` [Example 32, 1-[5-(5-Methyl-2-pyrazinyl)-1-(6-methyl-3-pyridyl)-1H-pyrazole-3-carbonyl]-4-fluoropiperidine], for which, in assay [1], the negative logarithm of the IC50 (pIC50) is 6.68. For the same compound, the “COX-1 inhibitory action at 50 μM (% inhibition)” value at Cyclooxygenase-1 (COX-1) is −8.4 % inhibition.

As to `COc1ccc(-n2nc(C(=O)N3CCOCC3)cc2-c2cc[nH]c2)nn1` [Example 41, 1-[1-(6-Methoxy-3-pyridazinyl)-5-(1H-pyrrol-3-yl)-1H-pyrazole-3-carbonyl]morpholine], the pIC50 in assay [1] is 6.77. Moreover, the “COX-1 inhibitory action at 50 μM (% inhibition)” value on Cyclooxygenase-1 (COX-1) was −21.3 % inhibition.

Take `Cc1ccc(-n2nc(C(=O)N3CCC(F)(F)CC3)cc2-c2cnc(C)cn2)cn1` [Example 2, 1-[5-(5-Methyl-2-pyrazinyl)-1-(6-methyl-3-pyridyl)-1H-pyrazole-3-carbonyl]-4,4-difluoropiperidine]: in assay [1], the pIC50 was 6.89. Besides, the “COX-1 inhibitory action at 50 μM (% inhibition)” value on Cyclooxygenase-1 (COX-1) is on record as −1.2 % inhibition.

Consider `COc1ccc(-n2nc(C(=O)N3CCN(C)C(=O)C3)cc2-c2ccn(C)n2)cn1` [Example 36, 1-[1-(6-Methoxy-3-pyridyl)-5 (1-methyl-1H-pyrazol-3-yl)-1H-pyrazole-3-carbonyl]-4-methyl-3-oxopiperazine], for which, in assay [1], the pIC50 is 6.43. The “COX-1 inhibitory action at 50 μM (% inhibition)” value on Cyclooxygenase-1 (COX-1) is reported as 1.2 % inhibition.

Consider `Cc1ccc(-c2cc(C(=O)N3CCC(F)(F)CC3)nn2-c2ccc(C)nn2)nc1` [Example 18, 1-[1-(6-Methyl-3-pyridazinyl)-5-(5-methyl-2-pyridyl)-1H-pyrazole-3-carbonyl]-4,4-difluoropiperidine], for which the negative logarithm of the IC50 (pIC50) in assay [1] is 6.70. In addition, the “COX-1 inhibitory action at 50 μM (% inhibition)” value on Cyclooxygenase-1 (COX-1) is reported as −3.0 % inhibition.
